# Source: patent US20190256827A1, “EPIGENOME EDITING SYSTEMS AND METHODS” (STC.UNM, priority 2017, published 2019)
# Test system: IL1RN locus in HEK293T cells
# Assay: ChIP-qPCR of FLAG-ABI-P300 and H3K27Ac at the IL1RN locus (dCas9-PYL-HA, FLAG-ABI-P300, IL1RN sgRNAs)
# Type: cell-based, human
# Description: To examine the recruitment of FLAG-ABI-P300, HEK293T cells were co-transfected with IL1RN sgRNAs, dCas9-PYL-HA and FLAG-ABI-P300 plasmids for 24 hours. Cells were then either treated or not treated with 100 μM ABA for another 24 hours before being harvested. Portions of the cell lysates were analyzed by using ChIP (with anti-FLAG antibody) and qPCR assays to quantify the level of FLAG-ABI-P300. […] To determine if the level of H3K27Ac changes in response to the FLAG-ABI-P300 localization, portions of the cell lysates produced in the above experiment were subjected to ChIP (using anti-H3K27Ac antibody) and qPCR assays to quantify the H3K27Ac enrichment.
# Human embryonic kidney cell HEK293T (American Type Culture Collection, Manassas, Va.) was cultured in Dulbecco's modified Eagle's medium (DMEM) (Gibco) with 10% FBS (Atlanta Biologicals), 1× GlutaMax (Gibco, Thermo Fisher Scientific, Inc., Waltham, Mass.), and 1× penicillin/streptomycin (Pen/Strep; Gibco, Thermo Fisher Scientific, Inc., Waltham, Mass.). Cells (100,000/ml) were plated in 24-well or 10-cm cell culture plate the day before transfection. For each well of 24-well plate transfection, 500 ng of dCas9-PYL-HA, 420 ng of FLAG-ABI-P300, and a total amount of 200-ng mix of gRNAs, with a 50-ng per each gRNA, were mixed with 50×(v/w) Opti-MEM (Gibco, Thermo Fisher Scientific, Inc., Waltham, Mass.), then incubate with the same volume of 3 μg PEI-Opti-MEM solution for 20 minutes at room temperature. Then, 100 μL of PEI-combined plasmids were added to every single well of 24-well plate and cultured for 24 hours before experiments were performed. For a 10 cm plate, 1 mL of PEI-combined plasmids were needed. After six hours transfection, cells were washed and incubated for another 1-72 hours before experiments were performed.
# ChIP protocol was optimized from the method in Molecular Cloning, Fourth edition (Cold Spring Harbor Laboratory Press, 2012). In brief, cells cultured in a 10-cm plate were fixed with 1 mL of cross-linking buffer (0.1 M NaCl, 1 mM EDTA, 0.5 mM EGTA, 50 mM HEPES and 11% formaldehyde), and shaken in room temperature for 15 minutes. Then 1.1 mL of 1.25 M glycine was added to the solution to stop crosslinking. After washing three times in ice cold PBS, cells were scraped and suspended in 10 mL of lysis buffer (50 mM HEPES, 140 mM NaCl, 1 mM EDTA, 10% Glycerol, 0.5% NP40, 0.25% Triton X-100), and rocked at 4° C. for 10 minutes. Cells were centrifuged at 1,000×g for 10 minutes and were resuspended in protein extraction buffer (200 mM NaCl, 1 mM EDTA, 0.5 mM EGTA, 10 mM Tris). Nuclei were pelleted by centrifuging at 1,000×g for 15 minutes at 4° C., resuspended in 2 mL of chromatin extraction buffer (1 mM EDTA, 0.5 mM EGTA, 10 mM Tris), and divided into six sonication tubes. Then, the samples were sonicated for 24 cycles at a 30 seconds on/30 seconds off protocol. Then samples were moved to a new centrifuge tube and insoluble debris were removed by centrifuge at 2,000×g for 20 minutes at 4° C. 10% volume of samples were stored at −80° C. as 10% input control. […] Then, sample-bound beads were washed eight times with RIPA buffer (50 mM HEPES, 1 mM EDTA, 1% NP40, 0.7% DOC, 0.5 M LiCl, 1× protease inhibitor complete cocktail), and finally re-suspended in TE (pH 8.0) buffer to wash. Then TE buffer was removed completely, 50 μL of elution buffer (10 mM Tris, 1 mM EDTA, 1% SDS) was added and the samples were incubated for 10 minutes at 65° C. and rocked every two minutes. The liquid was collected, 120 μL of elution buffer was added, and the samples were incubated at 65° C. overnight. Samples of 10% input were incubated with […] elution buffer at 65° C. overnight, too. To remove histones, washing buffer (140 μL of TE buffer, 3 μL of 20 mg/ml glycogen and 7 μL of 10 mg/ml Proteinase K) was added and incubated two hours at 37° C. Then ChIP samples were purified with phenol:chloroform:isoamyl alcohol (25:24:1) twice, then purified aqueous in chloroform. […]
# [1] = IL1RN locus, time course after ABA addition
smiles,measurement,setting,value
"CC1=CC(=O)CC(C)(C)[C@@]1(O)/C=C/C(C)=C\C(=O)O [ABA, abscisic acid]",FLAG-ABI-P300 level at the IL1RN locus,"100 μM ABA for 24 hours vs not treated, anti-FLAG ChIP",increase in FLAG-ABI-P300 level
same,H3K27Ac levels at the IL1RN locus,"24 h after ABA addition (100 μM) vs not treated, anti-H3K27Ac ChIP",H3K27Ac levels increase
same,stability of H3K27Ac at the IL1RN locus after ABA removal,"ABA for 12, 24 or 48 hours, then washed","the longer cells were treated with ABA, the slower H3K27Ac was removed after washing"
same,FLAG-ABI-P300 level at the IL1RN locus after washing to remove ABA,"ABA for 12, 24 or 48 hours, then washed with non-ABA media",rapidly decreases to a near background level within one hour following washing
same,time at which the level of H3K27Ac begins to rise,[1],one hour after ABA addition
same,time until which H3K27Ac continues to increase,[1],48 h
same,time at which FLAG-ABI-P300 reaches a maximal level at the IL1RN locus,time course after ABA addition,12 h
same,time of FLAG-ABI-P300 recruitment to the IL1RN locus after ABA addition,time course after ABA addition,Within one hour
